Experimental data from ChEMBL document CHEMBL2384987, “Metabolites from Microcystis aeruginosa bloom material collected at a water reservoir near Kibbutz Hafetz Haim, Israel” (J Nat Prod, 2013).
pIC50: −log10 of the molar value. Active and inactive are the calls of the source. The rule behind the calls is not given here. *1 amine or outer side, *2 acyl side, *3 side chain or, on linkers, in order; H or OH if unused. Where a SMILES comes first, the peptide text is derived from it. Bridges are numbered along the chain shown (N, C = ends). [ ]: non-standard residue; d: D form. The star is where a group is joined. Propanoyl(2R-OH,3-(4-HOPh)) = O=C([C@H](O)Cc1ccc(O)cc1)*; X1 = CO[C@@H]1CC[C@H](C(=O)[*:2])N1[*:1]; NMeF = CN[C@@H](Cc1ccccc1)C(=O)O

What was measured:
[1] = Inhibition of chymotrypsin (unknown origin); set-up: species or system Homo sapiens
[2] = molecular target: Prothrombin (Homo sapiens) (UniProt P00734); test: Inhibition of thrombin (unknown origin) at 45.5 uM
[3] = Inhibition of elastase (unknown origin); set-up: species or system Homo sapiens
Trypsin [4] = molecular target: T1, Trypsin (Homo sapiens, UniProt P07477+P07478+P35030); test: Inhibition of trypsin (unknown origin) at 45.5 uM; format: protein assay
Trypsin [5] = molecular target: T1, Trypsin; test: Inhibition of trypsin (unknown origin); format: protein assay

Row | SMILES | pIC50 [1] | inhibition [2] | pIC50 [3] | inhibition (Trypsin [4]) | IC50 (Trypsin [5]) [µM]
1 | CC(C)C[C@@H]1NC(=O)[C@@H](NC(=O)[C@H](CC(N)=O)NC(=O)[C@H](O)Cc2ccc(O)cc2)[C@@H](C)OC(=O)[C@H](C(C)C)NC(=O)[C@H](Cc2ccccc2)N(C)C(=O)[C@H](CC(C)C)N2C=CC[C@H](NC1=O)C2=O | 4.31 | inactive | 4.26 | inactive | –
2 | CC(C)C[C@@H]1NC(=O)[C@@H](NC(=O)[C@H](CC(N)=O)NC(=O)[C@H](O)Cc2ccc(O)cc2)[C@@H](C)OC(=O)[C@H](C(C)C)NC(=O)[C@H](Cc2ccccc2)N(C)C(=O)[C@H](CC(C)C)N2C(=O)[C@H](CC[C@H]2O)NC1=O | 5.37 | inactive | 4.75 | inactive | –
3 | CO[C@@H]1CC[C@@H]2C(=O)N[C@@H](CC(C)C)C(=O)N(C)[C@@H](Cc3ccccc3)C(=O)N[C@@H](C(C)C)C(=O)O[C@H](C)[C@H](NC(=O)[C@H](CC(N)=O)NC(=O)[C@H](O)Cc3ccc(O)cc3)C(=O)N[C@@H](CC(C)C)C(=O)N21 ({Propanoyl(2R-OH,3-(4-HOPh))}-NTL[X1]L[NMeF]V; ester 2-C) | 4.34 | inactive | 4.77 | inactive | –
4 | CC(=O)O[C@@H]1CC[C@@H]2C[C@H](C(N)=O)N(C(=O)[C@@H](Cc3ccc(O)cc3)NC(=O)[C@@H](O)Cc3ccc(O)cc3)[C@@H]2C1 | – | – | – | – | 45.5
